This note sets out measurements from patent US20220031680A1, “Donecopride As Neuroprotective Agent In the Treatment of Neurodegenerative Diseases” (priority 2018, published 2022).

The test system of the assay is rat primary hippocampal neurons injured with Aβ 1-42. The assay is described as follows: Survival and neurite network of MAP-2 neurons in primary hippocampal neurons injured with Aβ1-42. Format: cell-based. As to conditions: for MAP-2 neurite network (% of control) / MAP-2 neurons (% of control) / Neurite network/MAP-2 neurons (% of control): Aβ 1-42 (20 μM) 24 h; for MAP-2 neurons (% of control): 1 h preincubation; for Neurite network/MAP-2 neurons (% of control): neurite network normalized by number of neurons. The procedure: Rat hippocampal neurons were cultured as described by Callizot et al. (2013) J. Neurosci. Res. 91706-716. Pregnant female rats of 17 days gestation (Rats Wistar; Janvier Labs France) were killed using a deep anesthesia with CO2 chamber followed by a cervical dislocation. Then, fetuses were removed from the uterus and immediately placed in ice-cold L15 Leibovitz medium with a 2% penicillin (10,000 U/ml) and streptomycin (10 mg/ml) solution (PS) and 1% bovine serum albumin (BSA). Hippocampal neurons were treated for 20 min at 37° C. with a trypsin-EDTA solution at a final concentration of 0.05% trypsin and 0.02% EDTA. The dissociation was stopped by adding Dulbecco's modified Eagle's medium (DMEM) with 4.5 g/l of glucose, containing DNAse I grade II (final concentration 0.5 mg/ml) and 10% fetal calf serum (FCS). Cells were mechanically dissociated by three forced passages through the tip of a 10-ml pipette and then centrifuged at 515×g for 10 min at 4° C. The supernatant was discarded, and the pellet was resuspended in a defined culture medium consisting of Neurobasal medium with a 2% solution of B27 supplement, 2 mmol/l of L-glutamine, 2% of PS solution, and 10 ng/ml of brain-derived neurotrophic factor (BDNF). Viable cells were counted in a Neubauer cytometer, using the trypan blue exclusion test. Cells were seeded at a density of 20,000 per well in 96-well plates precoated with poly-L-lysine and cultured at 37° C. in an air (95%)-CO2 (5%) incubator. The medium was changed every 2 days.
The hippocampal neurons were exposed with Aβ solutions (see below) after 17 days of culture. The Aβ1-42 preparation was done following the procedure described by Callizot et al. (2013) J. Neurosci. Res. 91706-716. Briefly, Aβ1-42 peptide was dissolved in the defined culture medium mentioned above, at an initial concentration of 40 μM. This solution was gently agitated for 3 days at 37° C. in the dark and immediately used after being properly diluted in culture medium to the concentrations used (20 μM (plate 1) or 2.5 μM (plate 2) corresponding to 2 μM or 0.25 μM of oligomers (AβO) respectively).
Donecopride fumarate was solved in culture medium and preincubated 1 h before Aβ application. Aβ1-42 preparation was added to a final concentration of 20 or 2.5 μM (=2 μM or 0.25 μM of AβO, evaluated by automatic Western Blot) diluted in control medium in presence of Donecopride.
Donecopride fumarate (Donecopride) was tested on one culture in a 96 well plate (6 wells per conditions). The compound was preincubated one hour before Aβ application. The following conditions were assessed:
24 hours after intoxication, the hippocampal neurons were fixed by a cold solution of ethanol (95%) and acetic acid (5%) for 5 min at −20° C. After permeabilization with 0.1% of saponin, cells were incubated for 2 h with:
a) chicken polyclonal antibody anti microtubule-associated-protein 2 (MAP-2), diluted at 1/1000 in PBS containing 1% fetal calf serum and 0.1% of saponin (this antibody allows the specific staining of neuronal cell bodies and neurites; and allow the study of neuronal cell death and neurite network).
For each condition, 30 pictures (representative of the whole well area) per well were taken using ImageXpress (Molecular Devices) at 20× magnification. All images were taken with the same acquisition parameters. Analyses were performed automatically by using Custom Module Editor (Molecular Devices).
The following endpoints were assessed: • Total number of neurons (neuron survival, number of MAP-2 positive neurons) • Neurite network (in μm of MAP-2 positive neurons) • area of tau in neurons (μm^2, overlapping with MAP-2 positive neurons).
All values are expressed as mean+/−SEM. Statistical analysis was performed by one-way ANOVA, followed by PLSD Fisher's test, p<0.05 were considered significant.
Rat hippocampal neurons were cultured as described by Callizot et al. (2013) J. Neurosci. Res. 91:706-716. […]

[1] abbreviates: Aβ1-42 injured hippocampal neurons, Example 4.

SMILES strings stand for the structures. Marks after values point to notes of the source that are not given here.

As to `COc1cc2c(cc1OC)C(=O)C(CC1CCN(Cc3ccccc3)CC1)C2` (stereo not drawn) [Donepezil, reference compound], where the note is “1 μM”, the “MAP-2 neurite network (% of control)” value is 92* % of control, the “MAP-2 neurons (% of control)” value is 82* % of control and the “Neurite network/MAP-2 neurons (% of control)” value was 113* % of control.
In the case of `COc1cc(N)c(F)cc1C(=O)CCC1CCN(CC2CCCCC2)CC1` [Flucopride], under setting [1], the “neuroprotective effect (survival, neurite and synaptic network)” value is reported as “strong neuroprotective effect”. In addition, for the setting “Aβ1-42 injured hippocampal neurons, bell shaped curve (FIGS. 1A-C)”, the “concentration of maximum effect on survival and neurite network” value came out at 100 nM.
Turning to `COc1cc(N)c(Cl)cc1C(=O)CCC1CCN(CC2CCCCC2)CC1` [Donecopride], the “MAP-2 neurite network (% of control)” value by setting is: (1 nM) 64 % of control; (5 nM) 69 % of control; (10 nM) 68 % of control; (50 nM) 71* % of control; (100 nM) 73* % of control; (500 nM) 79* % of control. In addition, the “MAP-2 neurite network (% of control)” value (1 μM) is on record as 76* % of control. The “MAP-2 neurons (% of control)” value reads like this: (1 nM) 70 % of control; (5 nM) 69 % of control; (10 nM) 73 % of control; (50 nM) 74 % of control; (100 nM) 78* % of control; (500 nM) 79* % of control. For the same compound, the “MAP-2 neurons (% of control)” value (1 μM) is 62* % of control. Also, the “Neurite network/MAP-2 neurons (% of control)” value reads like this: (1 nM) 90 % of control; (5 nM) 99 % of control; (10 nM) 96 % of control; (50 nM) 91 % of control; (100 nM) 93 % of control; (500 nM) 100 % of control. Besides, the “Neurite network/MAP-2 neurons (% of control)” value (1 μM) is recorded as 124* % of control.
For the compound `COc1cc(N)c(F)cc1C(=O)CCC1CCN(CC2CCCC2)CC1` [MR33583], under “Aβ1-42 injured hippocampal neurons (FIGS. 7 and 8)”, the “active concentrations (neuroprotective effect)” value was in the range of 50 to 500 nM. Under setting [1], the “effect on neurite network” value is listed as “strong effect on neurite network was observed at almost every tested dose”; the “neuroprotective effect (survival, neurite and synaptic network)” value is listed as “neuroprotective effect following a bell shaped curved”.
With `COc1cc(N)c(F)cc1C(=O)CCC1CCN(CC2CCCCCC2)CC1` [MR36014], where the note is “pM doses, Aβ1-42 injured hippocampal neurons, Example 5 (FIG. 11)”, the “neuroprotective effect (survival, neurite network, Tau hyperphosphorylation)” value is given as “neuroprotective effect was also observed at pM doses”.
